One assay addresses recombinant human MGAT2 (Homo sapiens (Human), UniProt Q3SYC2). Description: Measurement of human MGAT2 inhibitory activity. The assay is classed as biochemical. The settings on record: read-out: IC50 (concentration exhibiting 50% enzyme inhibition), Table 52. Put shortly: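 Membrane fraction of Sf9 cells expressing N-terminally Flag-tagged full-length human MGAT2, incubated 1 h at room temperature in 100 mmol/L phosphate pH 7.4 with 2 mmol/L DTT. The substrate solution held 30 μmol/L 2-oleoylglycerol and 10 μmol/L oleoyl-CoA. Diolein product was quantified by RapidFire ESI Q-TOF MS against diolein-d5 internal standard; % inhibition was set relative to with/without-enzyme controls.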
Chain of recombinant human MGAT2 (Q3SYC2 whole entry): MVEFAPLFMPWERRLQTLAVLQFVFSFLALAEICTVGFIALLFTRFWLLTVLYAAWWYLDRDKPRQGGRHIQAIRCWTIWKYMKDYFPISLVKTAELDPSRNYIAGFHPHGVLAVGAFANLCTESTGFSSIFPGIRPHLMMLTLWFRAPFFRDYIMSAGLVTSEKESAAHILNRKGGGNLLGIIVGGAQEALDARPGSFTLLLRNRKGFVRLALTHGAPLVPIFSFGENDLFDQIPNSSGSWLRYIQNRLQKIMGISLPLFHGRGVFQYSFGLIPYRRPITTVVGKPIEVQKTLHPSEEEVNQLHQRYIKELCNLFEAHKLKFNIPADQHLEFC
On to `CS(=O)(=O)NC(=O)c1c2c(nn1CCC1CC1)C[C@]1(CCc3cc(OCC(F)(F)F)ccc31)NC2=O` [Compound I-279], for which the IC50 came to 50.5 nM.

On to `O=C1N[C@@]2(CCc3cc(OCC(F)(F)F)ccc32)Cc2nn(CCC3CC3)c(-c3nn[nH]n3)c21` [Compound I-280], for which the IC50 is 48 nM.

In the case of `CS(=O)(=O)CC(=O)Nc1c2c(nn1CCC1CC1)C[C@]1(CCc3cc(CN4CC(F)(F)C4)ccc31)NC2=O` [Compound I-281], the IC50 amounted to 72 nM.

Regarding `CS(=O)(=O)CC(=O)Nc1c2c(nn1-c1ccc(C#N)cn1)C[C@]1(CCc3cc(F)cc(F)c31)NC2=O` [Compound I-284], the IC50 came to 9.35 nM.

`CS(=O)(=O)CC(=O)Nc1c2c(nn1-c1ccc(C(F)(F)F)cn1)C[C@]1(CCc3cc(F)cc(F)c31)NC2=O` [Compound I-285]: the IC50 amounted to 3.5 nM.

The same assay, now with this note: read-out: IC50 (concentration exhibiting 50% enzyme inhibition), Table 53.
`CS(=O)(=O)CC(=O)Nc1c2c(nn1CCC1CC1)C1(Cc3ccc(OCC(F)(F)F)cc3C1)NC2=O` (stereo not shown) [II-1]: the IC50 was determined as 46 nM.

With `CS(=O)(=O)CC(=O)Nc1c2c(nn1-c1ccc(C#N)cn1)C1(Cc3cc(F)c(F)cc3C1)NC2=O` [II-4], the IC50 was determined as 32 nM.

Regarding `Cc1cccc(-n2nc3c(c2NC(=O)CS(C)(=O)=O)C(=O)N[C@@]2(CCOc4cc(OCC(F)(F)F)ccc42)C3)c1` [II-5], the IC50 came to 4.6 nM.

Consider `COc1ccc(-n2nc3c(c2NC(=O)CS(C)(=O)=O)C(=O)N[C@@]2(CCOc4cc(OCC(F)(F)F)ccc42)C3)cc1` [II-6], for which the IC50 was determined as 19 nM.

As for `CS(=O)(=O)CC(=O)Nc1c2c(nn1-c1ccncn1)C[C@]1(CCOc3cc(OCC(F)(F)F)ccc31)NC2=O` [II-7], the IC50 is 20 nM.

Consider `CS(=O)(=O)CC(=O)Nc1c2c(nn1CCC1CC1)C[C@@]1(CCOc3cc(OCC(F)(F)F)ccc31)NC2=O` [II-9], for which the IC50 stood at 9.5 nM.

On to `CS(=O)(=O)CC(=O)Nc1c2c(nn1C1CC3(COC3)C1)C[C@]1(CCc3cc(OCC(F)(F)F)ccc31)NC2=O` [II-11], for which the IC50 came out at 64 nM.

On to `CS(=O)(=O)CC(=O)Nc1c2c(nn1CC1CC(F)(F)C1)C[C@]1(CCc3cc(OCC(F)(F)F)ccc31)NC2=O` [II-12], for which the IC50 was determined as 35 nM.

In the case of `CS(=O)(=O)CC(=O)Nc1c2c(nn1CCc1ccccc1F)C[C@]1(CCc3cc(OCC(F)(F)F)ccc31)NC2=O` [II-13], the IC50 worked out at 27 nM.

`CS(=O)(=O)CC(=O)Nc1c2c(nn1C1CCCCC1)C[C@]1(CCOc3cc(OCC(F)(F)F)ccc31)NC2=O` [II-15]: the IC50 was determined as 12 nM.

As for `CS(=O)(=O)CC(=O)Nc1c2c(nn1-c1ccc(C#N)cn1)CC1(CN(Cc3ccc(C(F)(F)F)cc3)C1)NC2=O` [II-16], the IC50 came out at 28 nM.

Regarding `CS(=O)(=O)CC(=O)Nc1c2c(nn1-c1ccc(C#N)cn1)C[C@](c1ccc(OCC(F)(F)F)cc1)(C(F)(F)F)NC2=O` [II-17], the IC50 is 38 nM.

As for `CS(=O)(=O)CC(=O)Nc1c2c(nn1CCOCC(F)F)C[C@@]1(CCc3cc(OCC(F)(F)F)ccc31)NC2=O` [II-18], the IC50 stood at 47 nM.

As for `CS(=O)(=O)CC(=O)Nc1c2c(nn1CCCCC(F)(F)F)C[C@@]1(CCc3cc(OCC(F)(F)F)ccc31)NC2=O` [II-19], the IC50 was 12 nM.

`CS(=O)(=O)CC(=O)Nc1c2c(nn1CCCOC(F)(F)F)C[C@@]1(CCc3cc(OCC(F)(F)F)ccc31)NC2=O` [II-20]: the IC50 was 1.56 nM.

As to `COCCCn1nc2c(c1NC(=O)CS(C)(=O)=O)C(=O)N[C@]1(CCc3cc(OCC(F)(F)F)ccc31)C2` [II-21], the IC50 was 17 nM.

Consider `CS(=O)(=O)CC(=O)Nc1c2c(nn1CCn1cccn1)C[C@@]1(CCc3cc(OCC(F)(F)F)ccc31)NC2=O` [II-22], for which the IC50 is 32 nM.

On to `CS(=O)(=O)CC(=O)Nc1c2c(nn1CCc1ccc(F)cc1)C[C@@]1(CCc3cc(OCC(F)(F)F)ccc31)NC2=O` [II-23], for which the IC50 stood at 18 nM.

For the molecule `CS(=O)(=O)CC(=O)Nc1c2c(nn1CCOCC(F)F)C[C@]1(CCOc3cc(OCC(F)(F)F)ccc31)NC2=O` [II-24], the IC50 amounted to 32 nM.

For the molecule `CS(=O)(=O)CC(=O)Nc1c2c(nn1CCCCC(F)(F)F)C[C@]1(CCOc3cc(OCC(F)(F)F)ccc31)NC2=O` [II-25], the IC50 was found to be 7 nM.

Take `COCCCn1nc2c(c1NC(=O)CS(C)(=O)=O)C(=O)N[C@@]1(CCOc3cc(OCC(F)(F)F)ccc31)C2` [II-26]: the IC50 is 9.5 nM.

Take `CS(=O)(=O)CC(=O)Nc1c2c(nn1CCn1cccn1)C[C@]1(CCOc3cc(OCC(F)(F)F)ccc31)NC2=O` [II-27]: the IC50 came to 21 nM.

Take `CS(=O)(=O)CC(=O)Nc1c2c(nn1CCc1ccc(F)cc1)C[C@]1(CCOc3cc(OCC(F)(F)F)ccc31)NC2=O` [II-28]: the IC50 is 8.7 nM.

With `CS(=O)(=O)CC(=O)Nc1c2c(nn1-c1ccc(C#N)cn1)CC1(CN(C(=O)c3ccc(C(F)(F)F)cc3)C1)NC2=O` [II-29], the IC50 was 220 nM.

As for `CS(=O)(=O)CC(=O)Nc1c2c(nn1-c1ccc(C#N)cn1)C[C@]1(CCc3cc(Br)ccc31)NC2=O` [II-30], the IC50 came to 8.7 nM.

Regarding `CS(=O)(=O)CC(=O)Nc1c2c(nn1CCC1CC1)C[C@@]1(CCc3cc(NC4CC(F)(F)C4)ccc31)NC2=O` [II-32], the IC50 stood at 17 nM.

`CS(=O)(=O)CC(=O)Nc1c2c(nn1CCC1CC1)C[C@@]1(CCc3cc(N4CC(c5ccccc5)C4)ccc31)NC2=O` [II-33]: the IC50 stood at 3.3 nM.

With `CS(=O)(=O)CC(=O)Nc1c2c(nn1CCC1CC1)C[C@@]1(CCc3cc(N4CC(F)C4)ccc31)NC2=O` [II-34], the IC50 is 41 nM.

As to `CS(=O)(=O)CC(=O)Nc1c2c(nn1CCC1CC1)C[C@@]1(CCc3cc(N4CC(n5cccn5)C4)ccc31)NC2=O` [II-35], the IC50 worked out at 48 nM.

Turning to `CS(=O)(=O)CC(=O)Nc1c2c(nn1CCC1CC1)C[C@@]1(CCc3cc(N4CC5(CCOCC5)C4)ccc31)NC2=O` [II-36], the IC50 amounted to 53 nM.

On to `CC1(C)CN(c2ccc3c(c2)CC[C@@]32Cc3nn(CCC4CC4)c(NC(=O)CS(C)(=O)=O)c3C(=O)N2)C1` [II-37], for which the IC50 turned out to be 12 nM.

On to `CSCC(=O)Nc1c2c(nn1CCC1CC1)C[C@]1(CCc3cc(OCC(F)(F)F)ccc31)NC2=O` [II-38], for which the IC50 was 30 nM.

Take `C[S+]([O-])CC(=O)Nc1c2c(nn1CCC1CC1)C[C@]1(CCc3cc(OCC(F)(F)F)ccc31)NC2=O` (stereo partly shown) [II-39]: the IC50 stood at 42 nM.

For the molecule `CS(=O)(=O)CC(=O)Nc1c2c(nn1CCC1CC1)C[C@@]1(CCc3cc(N4CC(C(F)F)C4)ccc31)NC2=O` [II-40], the IC50 was 22 nM.

Take `CC(C)OC1CN(c2ccc3c(c2)CC[C@@]32Cc3nn(CCC4CC4)c(NC(=O)CS(C)(=O)=O)c3C(=O)N2)C1` [II-41]: the IC50 is 40 nM.

Regarding `CCOC1CN(c2ccc3c(c2)CC[C@@]32Cc3nn(CCC4CC4)c(NC(=O)CS(C)(=O)=O)c3C(=O)N2)C1` [II-42], the IC50 was 46 nM.

As for `CS(=O)(=O)CC(=O)Nc1c2c(nn1CCC1CC1)C[C@@]1(CCc3cc(N4CC(Oc5ccccc5)C4)ccc31)NC2=O` [II-43], the IC50 amounted to 3 nM.

Turning to `COC1(C)CN(c2ccc3c(c2)CC[C@@]32Cc3nn(CCC4CC4)c(NC(=O)CS(C)(=O)=O)c3C(=O)N2)C1` [II-44], the IC50 is 51 nM.

As to `COC(=O)CC1CN(c2ccc3c(c2)CC[C@@]32Cc3nn(CCC4CC4)c(NC(=O)CS(C)(=O)=O)c3C(=O)N2)C1` [II-45], the IC50 was determined as 98 nM.

For the molecule `CS(=O)(=O)CC(=O)Nc1c2c(nn1CCC1CC1)C[C@@]1(CCc3cc(N4CC5(COC5)C4)ccc31)NC2=O` [II-50], the IC50 amounted to 200 nM.

For the molecule `CC(=O)Nc1c2c(nn1-c1ccc(C#N)cn1)C[C@@]1(CCc3cc(OCC(F)(F)F)ccc31)NC2=O` [II-51], the IC50 was 440 nM.

For `CS(=O)(=O)CC(=O)Nc1c2c(nn1-c1ccc(C#N)cn1)C[C@]1(CCc3ccccc31)NC2=O` [II-52], the IC50 was 37 nM.

For `CS(=O)(=O)CC(=O)Nc1c2c(nn1-c1ccc(C#N)cn1)CC1(CN(c3ccc(C(F)(F)F)cc3F)C1)NC2=O` [II-53], the IC50 stood at 14 nM.

In the case of `CS(=O)(=O)CC(=O)Nc1c2c(nn1-c1ccc(C#N)cn1)C[C@]1(CCc3cc(N4CC(F)C4)ccc31)NC2=O` [II-55], the IC50 came to 44 nM.

Consider `COCCCn1nc2c(c1-c1nn[nH]n1)C(=O)N[C@@]1(CCc3cc(OCCCC(F)(F)F)ccc31)C2` [II-56], for which the IC50 came out at 47 nM.

With `COC1CN(c2ccc3c(c2)CC[C@]32Cc3nn(-c4ccc(C#N)cn4)c(NC(=O)CS(C)(=O)=O)c3C(=O)N2)C1` [II-57], the IC50 turned out to be 66 nM.

In the case of `CS(=O)(=O)CC(=O)Nc1c2c(nn1CCC1CC1)CC1(CN(c3ccc(C(F)(F)F)cc3)C1)NC2=O` [II-58], the IC50 is 16 nM.

Take `N#Cc1ccc(-n2nc3c(c2NC(=O)c2cocn2)C(=O)N[C@@]2(CCc4cc(OCC(F)(F)F)ccc42)C3)nc1` [II-59]: the IC50 was found to be 33 nM.

For `O=C(COC(F)(F)F)Nc1c2c(nn1CCC1CC1)C[C@]1(CCc3cc(OCC(F)(F)F)ccc31)NC2=O` [II-60], the IC50 worked out at 93 nM.

As for `Cn1c2c(c(NC(=O)CS(C)(=O)=O)c1-c1ccccc1)C(=O)N[C@@]1(CCc3cc(OCC(F)(F)F)ccc31)C2` [II-61], the IC50 turned out to be 16.7 nM.

For the molecule `N#Cc1ccc(-n2nc3c(c2C(=O)NCC2(CO)COC2)C(=O)N[C@@]2(CCc4cc(OCC(F)(F)F)ccc42)C3)nc1` [II-62], the IC50 came to 15.3 nM.

Turning to `CC(C)(O)C1CN(c2ccc3c(c2)CC[C@@]32Cc3nn(CCC4CC4)c(NC(=O)CS(C)(=O)=O)c3C(=O)N2)C1` [II-63], the IC50 amounted to 300 nM.

As to `CS(=O)(=O)CC(=O)Nc1c2c(nn1CCCOC(F)(F)F)C[C@]1(CCOc3cc(OCC(F)(F)F)ccc31)NC2=O` [II-64], the IC50 worked out at 2.9 nM.

On to `CS(=O)(=O)CC(=O)Nc1c2c(nn1CCCC(F)(F)F)C[C@]1(CCOc3cc(OCC(F)(F)F)ccc31)NC2=O` [II-65], for which the IC50 turned out to be 1.9 nM.

For the molecule `CS(=O)(=O)CC(=O)Nc1c2c(nn1CCC1CC1)C[C@@]1(CCc3cc(CCC(F)(F)F)ccc31)NC2=O` [II-66], the IC50 turned out to be 2.5 nM.

Regarding `CS(=O)(=O)CC(=O)Nc1c2c(nn1-c1ccc(F)c(F)c1)C[C@]1(CCOc3cc(OCC(F)(F)F)ccc31)NC2=O` [II-67], the IC50 was 2.64 nM.

Values taken from patent US11198695B2, “Fused ring derivative having MGAT-2 inhibitory activity” (Shionogi & Co., Ltd., priority 2017, dated 2021).
